Literature values as cited in patent US8366600B2, “Polyamine enhanced formulations for triptan compound iontophoresis” (NuPathe Inc., priority 2008, dated 2013).

Legend:
[1] = for Cmax: expected maximum concentration in the patient's plasma; for AUC: total plasma concentration
[2] = transdermal, iontophoresis vs passive

Cmax [1] [ng/mL] | AUC [1] | rate of iontophoretic transport relative to passive transport [2] [fold] | Structure (SMILES)
8 | 75 ng·h/mL |  | CNS(=O)(=O)CCc1ccc2[nH]cc(C3CCN(C)CC3)c2c1 [Naratriptan]
5 | 45 ng·h/mL |  | CN[C@@H]1CCc2[nH]c3ccc(C(N)=O)cc3c2C1 [Frovatriptan]
52 | 310 ng·h/mL |  | CN(C)CCc1c[nH]c2ccc(CS(=O)(=O)N3CCCC3)cc12 [Almotriptan]
4 | 20 ng·h/mL |  | CN(C)CCc1c[nH]c2ccc(C[C@H]3COC(=O)N3)cc12 [Zolmitriptan]
 |  | 385 | CNS(=O)(=O)Cc1ccc2[nH]cc(CCN(C)C)c2c1 [Sumatriptan]
200 | 1,300 ng · hr/mL |  | CN1CCC[C@@H]1Cc1c[nH]c2ccc(CCS(=O)(=O)c3ccccc3)cc12 [Eletriptan]
22 | 78 ng·h/mL |  | CN(C)CCc1c[nH]c2ccc(Cn3cncn3)cc12 [Rizatriptan]
